Assays:
[1] = UV-visible absorption spectra in DMSO; assay type: physicochemical
Description: The absorption spectra of compounds (4) and (5) recorded in DMSO are shown in FIG. 1 along with the parent compound (2). Based on the study of absorption spectra of hypocrellin B (2) (Diwu et al. Sinica Sol. B 18, 1993, 131), the shorter wavelength absorption bands are assigned to the π-π* transition, and the absorption bands at the longer wavelength is the relation to […] charge transfer (ICT) which may take on some active role in the photodynamic activity of the molecule. From FIG. 1, the absorption at the longer wavelengths of compounds (4) and (5) has enhanced, as compared to the parent hypocrellin B (2). The maximum absorption of compounds (4) and (5) is around 600-700 nm in DMSO which helps in tissue penetration, while the parent compound hypocrellin (2) has maximum absorption at 580 nm in DMSO. When an electron donating group like 3-dimethylaminopropylamine is introduced in the quinonoid molecule, its interaction with the adjacent carbonyl group enhances the red shift in the absorption spectra, thereby leading to an extended red shift spectral region (photodynamic window) which is important for PDT.

[2] = tested on: EMT-6 cells; experiment: Light treatment (PDT), clonogenic assay in EMT-6 cells; assay type: cell-based, mouse; details: for cell killing ability: 0-20 μM drug, graded light doses, 635 nm; for cell death after light treatment: EMT-6 cells, clonogenic assay, with light; for cell survival: Five μM drug concentration with 2 J/cm^2 light treatment, 635 nm laser
Procedure: (§1) EMT-6 cells in log phase growth were plated onto 35 mm tissue culture dishes 24 hours prior to experimentation. Growth media was removed and replaced with media containing compounds (4) or (5) at the above doses—0, 2.5 μM, 5 μM and 20 μM (Initially, the drugs were dissolved in pure DMSO @ a concentration of 2 mM). They were diluted down to the appropriate concentrations in RPMI growth media. The plates were then kept at 37° C. for 3 hours in the dark and then the cells were washed 2 times in PBS and finally had 2 ml of RPMI added to each dish. Then, the dark toxicity samples were kept covered at room temperature for the equivalent time taken for light treatment of the other samples. Light treated samples were subjected to grades doses of light (0, 0.5, 1, 2.5 and 5 J/cm^2) from 635 nm laser with a fluency rate of 150 milli watts. The media was removed and the cells trypsinized and re-plated at 200 cells/60 mm dish in normal RPMI growth media. The cells were allowed to grow for 7 days and then stained with Methylene Blue and the surviving colonies counted.

[3] = tested on: human (ex vivo) skin samples; experiment: PDT treated human (ex vivo) skin samples, histology
[4] = tested on: BT549 cells; experiment: Photodynamic activity, tritiated thymidine uptake in BT549 cells; assay type: cell-based; details: for activity in the absence of light treatment: no light; for cell death after light treatment: tritiated thymidine uptake, with light
Description: The photodynamic activity of compound 4 has been studied in two cell lines cells by measuring cell death post treatment by tritiated thymidine uptake (in […] cells) and clonogenic assays (in EMT-6 cells).
The photodynamic activity of ACP-compound 5 was studied in two cell lines cells by measuring cell death post treatment by tritiated thymidine uptake (in BT549 cells) and clonogenic assays (in EMT-6 cells).

[5] = tested on: normal mouse skin; experiment: PDT effect on normal mouse skin; assay type: in vivo
Description: Likewise, the photosensitizer alone without light treatment was also ineffective.

[6] = Phase 1 clinical study, topical application to the back of patients with acne; assay type: in vivo, human; details: 10 patients with acne on the back
Description: The primary objective of the study was to measure and quantify the fluorescence levels of ACP-compound 4 in sebaceous glands, epidermis and hair follicles at different time points after topical application. The study also monitored the safety of the drug product after topical administration. The study consisted of a group of 10 patients with acne on the back.

[7] = tested on: EMT-6 cells; experiment: Dark toxicity, clonogenic assay in EMT-6 cells; assay type: cell-based, mouse; details: no light
Procedure: EMT-6 cells in log phase growth were plated onto 35 mm dishes 24 hours prior to experimentation. Growth media was removed and replaced with media containing compounds (4) and (5) at the doses (0, 2.5 μM, 5 μM and 20 μM). The plates were then kept at 37° C. for 3 hours in the dark and then the cells were washed 2 times in PBS then trypsinized and re-plated at 200 cells/60 mm dish in normal RPMI growth media. The cells were allowed to grow for 7 days and then stained with Methylene Blue and the surviving colonies counted.
as §1, with “Light treated samples were subjected to grades doses of light (0, 0.5, 1, 2.5 and 5 J/cm^2) from 635 nm laser with a fluency rate of 150 milli watts. The media was removed and the cells trypsinized and re-plated at 200 cells/60 mm dish in normal RPMI growth media.” left out

[8] = tested on: EMT-6 mouse tumor model; experiment: PDT in EMT-6 mouse tumor model; assay type: in vivo; details: liposomal formulation (DPPC and cholesterol) combined with light treatment
Description: Liposomal formulations of compound 5 for systemic delivery of the photosensitizer. The photosensitizer is formulated with a mixture of dipalmitoyl phosphatidylcholine (DPPC) and cholesterol and extruded through membrane of different pore size until the required size of liposomes was achieved.

[9] = Fluorescence spectra in chloroform; assay type: physicochemical
Description: The introduction of the extra cyclic ring in compound (5) have shown a new fluorescent band at longer wavelength (around 725 nm), because of the […] H-atom transfer process. The new florescent band is considered to be related to the ICT between the amino group and the […] carbonyl group.

Compound	maximum absorption [1] [nm]	cell killing ability [2]	cell death after light treatment [2]	cell survival [2] [cell per 1000 plated]	histological changes after PDT [3]	absorption at the longer wavelengths as compared to the parent hypocrellin B (2) [1]	activity in the absence of light treatment [4]	cell death after light treatment [4]	tissue damage ([5]; 70 J/cm^2, penetration for 3 to 5 hours)	tissue damage ([5]; 70 J/cm^2, penetration time of 1 or 2 hours, 7 days post treatment)	tissue damage ([5]; 100 J/cm^2, 1 hour of penetration)	tissue damage ([5]; 100 J/cm^2, 2 hours of penetration)	tissue damage ([5]; 100 J/cm^2, 3 hours of penetration)	tissue damage, photosensitizer alone ([5]; without light treatment)	adverse events [6]	activity in the absence of light treatment [7]	tumor response [8]	new fluorescent band at longer wavelength [9]
COc1c2c3c4c(c(OC)c(=O)c5c(O)cc(OC)c(c6c(OC)cc(O)c(c1=O)c63)c54)C(C(C)=O)=C(C)C2 [hypocrellin (2), hypocrellin B, reference compound]	580																	
COc1c(O)c2c(=O)cc(OC)c3c4c(OC)cc(=O)c5c(O)c(NCCCN(C)C)c6c(c(c1C(C(C)=O)C(C)=C6)c23)c54 (stereo not shown) [Compound 4, 2-(N,N-dimethylaminopropyl)-amino-15-acetyl-3,10-dihydroxy-6,7,11-trimethoxy-14-methyl-15-H-cyclohepta(ghi)perylene-4,9-dione]		dose dependent cell killing ability with increasing light and drug dose	significant cell death	1	no histological changes up to two days post treatment but progressive necrotic/apoptotic changes thereafter	enhanced	No significant activity	significant cell death	significant epidermal apoptosis	mild injury to the epidermal cells	only the epithelium and part of the fatty layer showed damage	Apoptosis of epidermal cells, basal layer and hair follicle	the whole tissue layer, including muscle layer showed significant damage	ineffective	No adverse events have been observed	No significant activity		
COc1c(O)c2c(=O)cc(OC)c3c4c(OC)cc(=O)c5c6c(c7c(c(c1C(C(C)=O)C(C)=C7)c23)c54)NC1CCCCC1N6 (stereo not shown) [Compound 5, (2,3b)-Octahydroquinoxalin-yl-hypocrellin B derivative]		dose dependent cell killing ability with increasing light and drug dose	significant cell death	1		enhanced	No significant activity	significant cell death								No significant activity	Complete cure of the implanted tumor	around 725 nm

— patent US8747811B2, “Perylenequinone derivatives and uses thereof” (Quest Pharmatech, Inc., priority 2005, dated 2014)
